Laboratory results: ChEMBL document CHEMBL3421577, “Discovery and biological evaluation of tetrahydrothieno[2,3-c]pyridine derivatives as selective metabotropic glutamate receptor 1 antagonists for the potential treatment of neuropathic pain” (Eur J Med Chem, 2015)

How the values were obtained:
[1] = biological target: 5-hydroxytryptamine receptor 2C (Homo sapiens) (UniProt P28335); test: Antagonist activity at 5HT2C receptor (unknown origin) at 10 uM relative to control
[2] = Plasma concentration in Sprague-Dawley rat at 10 mg/kg, iv measured at 2 hrs by LC-MS/MS analysis; format: ADME, organism-based; parameters: dose 10 mg/kg, route intravenous
[3] = biological target: CYP3A4 (Homo sapiens, UniProt P08684); test: Inhibition of recombinant human CYP3A4 assessed as remaining activity at 10 uM preincubated for 5 mins followed by substrate and NADP addition measured after 20 mins by fluorescence assay relative to control; format: ADME; conditions: read-out: Activity
[4] = biological target: C-C chemokine receptor type 5 (Homo sapiens) (UniProt P51681); test: Agonist activity at CCR5 (unknown origin) at 12.5 uM relative to control
C-C chemokine receptor type 5 (Homo sapiens), sequence (P51681 whole entry, looked up): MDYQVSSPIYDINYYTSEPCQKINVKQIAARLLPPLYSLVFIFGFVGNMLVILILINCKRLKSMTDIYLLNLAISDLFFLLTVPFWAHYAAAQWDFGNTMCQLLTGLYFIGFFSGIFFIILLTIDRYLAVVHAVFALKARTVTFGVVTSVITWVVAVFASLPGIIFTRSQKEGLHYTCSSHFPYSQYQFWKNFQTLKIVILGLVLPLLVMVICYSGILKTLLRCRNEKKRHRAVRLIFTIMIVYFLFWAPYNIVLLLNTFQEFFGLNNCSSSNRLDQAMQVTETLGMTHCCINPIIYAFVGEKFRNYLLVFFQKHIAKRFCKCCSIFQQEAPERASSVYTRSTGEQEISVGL

[5] = test system: Rattus norvegicus; test: Analgesic activity in rat spinal nerve ligation model of neuropathic pain assessed as recovery from cold allodynia at 100 mg/kg, po administered on day 14 post ligation surgery measured after 1 hr relative to control; format: functional
[6] = biological target: 5-hydroxytryptamine receptor 2A (Homo sapiens) (UniProt P28223); test: Agonist activity at 5HT2A receptor (unknown origin) at 12.5 uM relative to control
[7] = biological target: T1, CYP1A2 (Homo sapiens, UniProt P05177); test: Inhibition of recombinant human CYP1A2 assessed as remaining activity at 10 uM preincubated for 5 mins followed by substrate and NADP addition measured after 20 mins by fluorescence assay relative to control; format: ADME; conditions: read-out: Activity
T1 sequence (P05177 whole entry): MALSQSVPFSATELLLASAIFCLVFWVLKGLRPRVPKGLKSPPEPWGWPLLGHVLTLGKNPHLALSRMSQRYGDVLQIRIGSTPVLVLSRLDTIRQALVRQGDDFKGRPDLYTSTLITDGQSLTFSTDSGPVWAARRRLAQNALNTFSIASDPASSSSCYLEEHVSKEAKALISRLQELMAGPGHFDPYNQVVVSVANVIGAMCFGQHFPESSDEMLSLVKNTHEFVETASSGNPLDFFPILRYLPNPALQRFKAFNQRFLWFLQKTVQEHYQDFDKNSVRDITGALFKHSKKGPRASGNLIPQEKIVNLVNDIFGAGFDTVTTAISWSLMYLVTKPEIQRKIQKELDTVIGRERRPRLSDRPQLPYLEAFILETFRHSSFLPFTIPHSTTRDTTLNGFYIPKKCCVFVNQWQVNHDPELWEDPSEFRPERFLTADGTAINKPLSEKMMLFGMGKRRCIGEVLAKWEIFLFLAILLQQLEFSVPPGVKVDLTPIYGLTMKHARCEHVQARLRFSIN

[8] = biological target: Metabotropic glutamate receptor 2 (Homo sapiens) (UniProt Q14416); test: Agonist activity at mGlu2 receptor (unknown origin) at 12.5 uM relative to control
Metabotropic glutamate receptor 2 (Homo sapiens), sequence (Q14416 19-872 limits assumed): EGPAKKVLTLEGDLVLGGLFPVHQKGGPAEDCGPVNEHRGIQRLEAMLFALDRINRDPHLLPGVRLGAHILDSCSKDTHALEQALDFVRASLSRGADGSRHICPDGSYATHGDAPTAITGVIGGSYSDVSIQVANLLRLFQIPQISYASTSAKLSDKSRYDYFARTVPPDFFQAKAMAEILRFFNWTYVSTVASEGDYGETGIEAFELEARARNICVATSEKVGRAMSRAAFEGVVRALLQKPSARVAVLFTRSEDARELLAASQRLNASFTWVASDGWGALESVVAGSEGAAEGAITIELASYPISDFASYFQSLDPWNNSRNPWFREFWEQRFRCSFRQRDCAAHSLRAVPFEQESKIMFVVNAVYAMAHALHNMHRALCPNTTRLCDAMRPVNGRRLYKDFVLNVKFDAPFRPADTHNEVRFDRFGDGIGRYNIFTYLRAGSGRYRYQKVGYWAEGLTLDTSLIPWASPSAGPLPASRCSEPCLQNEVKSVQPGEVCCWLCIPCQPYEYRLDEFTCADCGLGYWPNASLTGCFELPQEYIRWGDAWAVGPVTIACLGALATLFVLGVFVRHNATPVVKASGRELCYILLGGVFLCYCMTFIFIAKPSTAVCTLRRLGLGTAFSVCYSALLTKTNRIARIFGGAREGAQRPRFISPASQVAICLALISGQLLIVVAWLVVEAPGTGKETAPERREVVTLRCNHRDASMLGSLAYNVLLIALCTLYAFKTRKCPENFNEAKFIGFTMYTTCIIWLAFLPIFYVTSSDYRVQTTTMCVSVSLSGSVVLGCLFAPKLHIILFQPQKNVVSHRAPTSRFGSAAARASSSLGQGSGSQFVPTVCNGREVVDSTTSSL

[9] = Tmax in Sprague-Dawley rat at 10 mg/kg, po by LC-MS/MS analysis; format: ADME, organism-based; parameters: dose 10 mg/kg, route oral; conditions: in vivo
[10] = biological target: CYP2D6 (Homo sapiens, UniProt P10635); test: Inhibition of recombinant human CYP2D6 assessed as remaining activity at 10 uM preincubated for 5 mins followed by substrate and NADP addition measured after 20 mins by fluorescence assay relative to control; format: ADME; conditions: read-out: Activity
CYP2D6, sequence (P10635 whole entry): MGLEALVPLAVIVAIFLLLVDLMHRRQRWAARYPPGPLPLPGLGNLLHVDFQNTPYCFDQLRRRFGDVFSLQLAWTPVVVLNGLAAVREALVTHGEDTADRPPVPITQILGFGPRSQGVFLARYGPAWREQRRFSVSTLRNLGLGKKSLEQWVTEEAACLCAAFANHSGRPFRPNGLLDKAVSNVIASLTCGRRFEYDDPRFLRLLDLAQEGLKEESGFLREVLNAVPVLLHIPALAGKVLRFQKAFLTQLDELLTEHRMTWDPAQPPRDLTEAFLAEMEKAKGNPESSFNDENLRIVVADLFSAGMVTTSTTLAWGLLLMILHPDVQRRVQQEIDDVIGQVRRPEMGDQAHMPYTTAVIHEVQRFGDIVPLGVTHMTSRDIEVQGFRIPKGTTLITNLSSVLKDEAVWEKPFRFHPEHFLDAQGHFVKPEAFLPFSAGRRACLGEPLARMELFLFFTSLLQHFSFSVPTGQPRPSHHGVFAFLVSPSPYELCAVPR

[11] = biological target: Metabotropic glutamate receptor 2 (Homo sapiens) (UniProt Q14416); test: Antagonist activity at mGlu2 receptor (unknown origin) at 10 uM relative to control
[12] = Plasma concentration in Sprague-Dawley rat at 10 mg/kg, po measured at 2 hrs by LC-MS/MS analysis; format: ADME, organism-based; parameters: dose 10 mg/kg, route oral
[13] = AUC (0 to infinity) in Sprague-Dawley rat at 10 mg/kg, po by LC-MS/MS analysis; format: ADME, organism-based; parameters: time infinity, dose 10 mg/kg, route oral; conditions: plasma
[14] = Mean residence time in Sprague-Dawley rat at 10 mg/kg, iv by LC-MS/MS analysis; format: ADME, organism-based; parameters: dose 10 mg/kg, route intravenous; conditions: in vivo
[15] = AUC (0 to infinity) in Sprague-Dawley rat at 10 mg/kg, iv by LC-MS/MS analysis; format: ADME, organism-based; parameters: time infinity, dose 10 mg/kg, route intravenous; conditions: plasma
[16] = biological target: Delta-type opioid receptor (Homo sapiens) (UniProt P41143); test: Agonist activity at OPRD1 receptor (unknown origin) at 12.5 uM relative to control
Delta-type opioid receptor (Homo sapiens), sequence (P41143 whole entry): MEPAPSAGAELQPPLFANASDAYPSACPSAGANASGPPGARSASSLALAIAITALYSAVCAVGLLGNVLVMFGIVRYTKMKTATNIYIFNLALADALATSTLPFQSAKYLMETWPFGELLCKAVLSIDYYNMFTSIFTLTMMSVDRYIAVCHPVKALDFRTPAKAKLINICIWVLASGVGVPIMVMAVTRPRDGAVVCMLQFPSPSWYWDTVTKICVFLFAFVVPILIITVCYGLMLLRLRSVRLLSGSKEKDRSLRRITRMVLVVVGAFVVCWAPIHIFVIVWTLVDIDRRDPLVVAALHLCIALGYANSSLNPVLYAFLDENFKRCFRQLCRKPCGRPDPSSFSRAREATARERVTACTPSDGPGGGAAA

[17] = Ratio of drug level in brain to plasma in Sprague-Dawley rat at 10 mg/kg, po measured at 2 hrs by LC-MS/MS analysis; format: ADME, organism-based; parameters: dose 10 mg/kg, route oral; conditions: read-out: BPR
[18] = Terminal half life in Sprague-Dawley rat at 10 mg/kg, iv by LC-MS/MS analysis; format: ADME, organism-based; parameters: dose 10 mg/kg, route intravenous; conditions: in vivo, read-out: beta t1/2
[19] = Apparent volume of distribution at steady state in Sprague-Dawley rat at 10 mg/kg, iv by LC-MS/MS analysis; format: ADME, organism-based; parameters: dose 10 mg/kg, route intravenous; conditions: in vivo, read-out: Vdss(app)
[20] = biological target: Muscarinic acetylcholine receptor M5 (Homo sapiens) (UniProt P08912); test: Antagonist activity at M5 receptor (unknown origin) at 10 uM relative to control
Muscarinic acetylcholine receptor M5 (Homo sapiens), sequence (P08912 whole entry): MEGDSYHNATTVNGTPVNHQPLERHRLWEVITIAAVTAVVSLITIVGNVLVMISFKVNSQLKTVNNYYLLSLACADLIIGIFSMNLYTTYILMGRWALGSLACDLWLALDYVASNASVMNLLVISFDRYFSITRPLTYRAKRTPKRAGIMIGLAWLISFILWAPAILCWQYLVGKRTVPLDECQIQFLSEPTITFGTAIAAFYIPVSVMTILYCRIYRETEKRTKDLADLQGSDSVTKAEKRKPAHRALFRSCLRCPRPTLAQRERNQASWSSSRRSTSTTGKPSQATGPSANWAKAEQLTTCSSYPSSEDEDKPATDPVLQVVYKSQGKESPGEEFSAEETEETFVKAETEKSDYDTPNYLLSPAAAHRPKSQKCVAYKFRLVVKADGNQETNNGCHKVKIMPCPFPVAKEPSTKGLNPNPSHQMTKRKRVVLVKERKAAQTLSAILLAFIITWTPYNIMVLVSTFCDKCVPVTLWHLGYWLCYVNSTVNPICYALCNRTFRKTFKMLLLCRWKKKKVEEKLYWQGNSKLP

[21] = biological target: Delta-type opioid receptor (Homo sapiens) (UniProt P41143); test: Antagonist activity at OPRD1 receptor (unknown origin) at 10 uM relative to control
[22] = Drug excretion in Sprague-Dawley rat at 10 mg/kg, po by LC-MS/MS analysis; format: ADME, organism-based; parameters: dose 10 mg/kg, route oral; conditions: in vivo, read-out: Drug excretion
[23] = Drug uptake in Sprague-Dawley rat brain at 10 mg/kg, po measured at 2 hrs by LC-MS/MS analysis; format: ADME, organism-based; parameters: dose 10 mg/kg, route oral; conditions: read-out: Drug uptake
[24] = biological target: Substance-P receptor (Homo sapiens) (UniProt P25103); test: Agonist activity at NK1 receptor (unknown origin) at 12.5 uM relative to control
Substance-P receptor (Homo sapiens), sequence (P25103 whole entry): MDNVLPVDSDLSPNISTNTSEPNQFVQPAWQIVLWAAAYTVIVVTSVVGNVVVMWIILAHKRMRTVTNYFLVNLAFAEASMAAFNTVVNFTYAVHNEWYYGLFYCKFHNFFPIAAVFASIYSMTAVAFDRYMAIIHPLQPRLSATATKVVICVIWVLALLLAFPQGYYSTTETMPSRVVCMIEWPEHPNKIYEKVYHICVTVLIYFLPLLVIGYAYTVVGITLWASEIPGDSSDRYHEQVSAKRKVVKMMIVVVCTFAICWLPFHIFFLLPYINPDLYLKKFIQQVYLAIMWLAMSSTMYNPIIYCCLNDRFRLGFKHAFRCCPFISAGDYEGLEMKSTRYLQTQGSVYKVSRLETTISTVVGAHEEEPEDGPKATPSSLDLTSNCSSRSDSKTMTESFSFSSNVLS

[25] = biological target: C-C chemokine receptor type 2 (Homo sapiens) (UniProt P41597); test: Antagonist activity at CCR2B (unknown origin) at 10 uM relative to control
C-C chemokine receptor type 2 (Homo sapiens), sequence (P41597 whole entry, looked up): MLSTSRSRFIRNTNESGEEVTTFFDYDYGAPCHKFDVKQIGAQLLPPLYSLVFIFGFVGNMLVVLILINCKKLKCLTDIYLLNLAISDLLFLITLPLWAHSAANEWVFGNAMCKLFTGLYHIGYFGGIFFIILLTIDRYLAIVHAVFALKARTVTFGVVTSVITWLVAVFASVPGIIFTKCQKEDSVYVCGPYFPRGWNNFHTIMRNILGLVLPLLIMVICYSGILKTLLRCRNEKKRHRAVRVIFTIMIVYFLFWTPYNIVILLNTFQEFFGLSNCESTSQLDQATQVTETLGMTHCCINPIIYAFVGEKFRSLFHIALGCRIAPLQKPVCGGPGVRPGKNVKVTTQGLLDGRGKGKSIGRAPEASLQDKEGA

[26] = biological target: CYP2C19 (Homo sapiens, UniProt P33261); test: Inhibition of recombinant human CYP2C19 assessed as remaining activity at 10 uM preincubated for 5 mins followed by substrate and NADP addition measured after 20 mins by fluorescence assay relative to control; format: ADME; conditions: read-out: Activity
CYP2C19, sequence (P33261 whole entry): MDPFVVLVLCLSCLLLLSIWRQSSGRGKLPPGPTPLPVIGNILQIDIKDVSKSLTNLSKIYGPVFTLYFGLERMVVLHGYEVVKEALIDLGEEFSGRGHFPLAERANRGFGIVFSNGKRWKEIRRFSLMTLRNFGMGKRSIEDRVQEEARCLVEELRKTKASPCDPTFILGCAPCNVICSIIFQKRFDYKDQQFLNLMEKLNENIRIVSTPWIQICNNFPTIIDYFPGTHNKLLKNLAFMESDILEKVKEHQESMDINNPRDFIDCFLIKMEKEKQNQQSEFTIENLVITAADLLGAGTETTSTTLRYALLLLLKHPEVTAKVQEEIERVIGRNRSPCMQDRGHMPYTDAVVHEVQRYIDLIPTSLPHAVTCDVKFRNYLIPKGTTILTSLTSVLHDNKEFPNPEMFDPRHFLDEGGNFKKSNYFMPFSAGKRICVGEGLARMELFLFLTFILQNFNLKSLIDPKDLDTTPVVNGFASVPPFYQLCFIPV

[27] = Ratio of drug level in brain to plasma in Sprague-Dawley rat at 10 mg/kg, iv measured at 2 hrs by LC-MS/MS analysis; format: ADME, organism-based; parameters: dose 10 mg/kg, route intravenous; conditions: read-out: BPR
[28] = biological target: Muscarinic acetylcholine receptor M5 (Homo sapiens) (UniProt P08912); test: Agonist activity at M5 receptor (unknown origin) at 12.5 uM relative to control
[29] = biological target: Metabotropic glutamate receptor 1 (Homo sapiens, UniProt Q13255); test: Antagonist activity at human mGluR1 expressed in human Chem-3 cells assessed as inhibition of L-glutamate-induced calcium release by calcium-5 reagent-based fluorescence assay; format: functional, cell-based
[30] = Plasma concentration in Sprague-Dawley rat at 10 mg/kg, iv measured at 8 hrs by LC-MS/MS analysis; format: ADME, organism-based; parameters: dose 10 mg/kg, route intravenous
[31] = biological target: Alpha-1A adrenergic receptor (Homo sapiens) (UniProt P35348); test: Agonist activity at ADRA1A (unknown origin) at 12.5 uM relative to control
Alpha-1A adrenergic receptor (Homo sapiens), sequence (P35348 whole entry): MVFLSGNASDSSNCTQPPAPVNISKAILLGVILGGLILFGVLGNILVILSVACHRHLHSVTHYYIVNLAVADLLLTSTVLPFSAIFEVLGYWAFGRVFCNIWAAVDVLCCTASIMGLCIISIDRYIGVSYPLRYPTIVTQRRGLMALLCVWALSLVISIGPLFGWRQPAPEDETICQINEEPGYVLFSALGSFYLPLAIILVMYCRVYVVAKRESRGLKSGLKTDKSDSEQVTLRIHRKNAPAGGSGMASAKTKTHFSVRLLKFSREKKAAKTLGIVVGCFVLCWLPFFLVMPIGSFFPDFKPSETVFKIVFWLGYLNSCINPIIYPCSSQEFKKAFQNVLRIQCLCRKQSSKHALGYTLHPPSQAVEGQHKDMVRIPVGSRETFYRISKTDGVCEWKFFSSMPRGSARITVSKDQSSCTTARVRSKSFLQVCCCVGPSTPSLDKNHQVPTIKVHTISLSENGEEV

[32] = biological target: B2 bradykinin receptor (Homo sapiens) (UniProt P30411); test: Agonist activity at BDKR2 (unknown origin) at 12.5 uM relative to control
B2 bradykinin receptor (Homo sapiens), sequence (P30411 whole entry): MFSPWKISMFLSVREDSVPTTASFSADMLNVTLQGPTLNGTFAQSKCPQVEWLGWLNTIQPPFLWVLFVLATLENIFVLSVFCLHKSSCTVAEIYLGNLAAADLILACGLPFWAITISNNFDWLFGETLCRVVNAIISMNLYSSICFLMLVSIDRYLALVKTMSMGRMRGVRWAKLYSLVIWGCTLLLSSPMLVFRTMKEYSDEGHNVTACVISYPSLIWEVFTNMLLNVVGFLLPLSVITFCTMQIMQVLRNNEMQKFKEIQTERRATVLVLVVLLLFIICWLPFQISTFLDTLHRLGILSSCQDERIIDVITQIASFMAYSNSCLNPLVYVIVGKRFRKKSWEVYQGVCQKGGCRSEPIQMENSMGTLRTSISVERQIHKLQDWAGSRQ

[33] = biological target: Cannabinoid receptor 1 (Homo sapiens) (UniProt P21554); test: Antagonist activity at CB1 receptor (unknown origin) at 10 uM relative to control

**Q.** What does the source list for `Cc1cc(C(=O)N2CCc3c(sc(NCc4ccccc4)c3C#N)C2)[nH]n1`?
**A.** inhibition [1]: -9.4%; concentration at 2 h [2]: 1240 ng/mL; activity at 20 min, 10 µM [3]: 20.5%; Activity [4]: -0.6%; Activity [5]: 90%; Activity [6]: -4%; activity at 20 min, 10 µM [7]: 72.7%; Activity [8]: -2.7%; Tmax [9]: 1.2 h; activity at 20 min, 10 µM [10]: 33.7%; inhibition [11]: 5.8%; concentration at 2 h [12]: 1190 ng/mL; AUC(0-inf) [13]: 4250 ng·h/mL; MRT [14]: 1.31 h; AUC(0-inf) [15]: 9270 ng·h/mL; Activity [16]: 1.5%; Kp at 2 h [17]: 0.13; half-life [18]: 1.83 h; Vd [19]: 1.66 L/kg; inhibition [20]: 7.7%; inhibition [21]: 3.8%; dose excreted [22]: 0%; concentration at 2 h [23]: 156 ng/mL; Activity [24]: 0.8%; inhibition [25]: -0.1%; activity at 20 min, 10 µM [26]: 14.2%; Kp at 2 h [27]: 0.14; Activity [28]: 0.9%; IC50 [29]: 1.42 µM; concentration at 8 h [30]: 80 ng/mL; Activity [31]: 0.3%; Activity [32]: 0.7%; inhibition [33]: -2.8%
